Measured values as given in patent US8299111B2, “Compounds which modulate the CB2 receptor” (Boehringer Ingelheim International GmbH, priority 2006, dated 2012).

Target: T1, human CB2R (Homo sapiens, UniProt P34972)
T1 construct: host or cells: CHO cells
Test: CB2R mediated modulation of cAMP synthesis
Type: cell-based
Conditions: found through the use of the above described assays (binding and cAMP); CHO cells expressing human CB2R, forskolin-stimulated cAMP
How it was run: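 EC50 values reflect inhibition of cAMP made in response to 10 uM forskolin (with 1 mM IBMX, 0.25% BSA) over 30 min at 37 °C in human CB2R-expressing CHO cells. The window runs from forskolin alone to 1 uM CP55940; curves fitted with a four-parameter logistic model.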

T1 sequence (P34972 whole entry): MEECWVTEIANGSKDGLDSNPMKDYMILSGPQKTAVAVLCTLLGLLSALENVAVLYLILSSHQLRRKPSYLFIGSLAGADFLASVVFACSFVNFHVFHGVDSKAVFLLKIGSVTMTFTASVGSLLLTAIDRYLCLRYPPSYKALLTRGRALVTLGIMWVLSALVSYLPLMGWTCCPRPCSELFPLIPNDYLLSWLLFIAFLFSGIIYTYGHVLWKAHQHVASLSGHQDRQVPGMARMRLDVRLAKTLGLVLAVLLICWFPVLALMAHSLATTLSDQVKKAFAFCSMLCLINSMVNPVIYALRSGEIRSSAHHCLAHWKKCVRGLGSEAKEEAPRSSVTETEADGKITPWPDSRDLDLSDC

agonistic activity	Structure (SMILES)
agonistic activity	Cc1ccc(S(=O)(=O)C(C)(C)C(=O)Nc2cc(C(C)(C)C)on2)cn1 [N-(5-tert-Butyl-isoxazol-3-yl)-2-methyl-2-(6-methyl-pyridine-3-sulfonyl)-propionamide]
agonistic activity	CC(C)(C)c1cc(NC(=O)C(C)(C)S(=O)(=O)c2ccccn2)no1 [N-(5-tert-Butyl-isoxazol-3-yl)-2-methyl-2-(pyridine-2-sulfonyl)-propionamide]
agonistic activity	CC(C)(C)c1cc(NC(=O)C(C)(C)S(=O)(=O)c2cccnc2)no1 [N-(5-tert-Butyl-isoxazol-3-yl)-2-methyl-2-(pyridine-3-sulfonyl)-propionamide]
agonistic activity	CC(C)(C)c1cc(NC(=O)C(C)(C)S(=O)(=O)c2cccc3cccnc23)no1 [N-(5-tert-Butyl-isoxazol-3-yl)-2-methyl-2-(quinoline-8-sulfonyl)-propionamide]
agonistic activity	CC(C)(C)c1cc(NC(=O)C(C)(C)S(=O)(=O)c2cccs2)no1 [N-(5-tert-Butyl-isoxazol-3-yl)-2-methyl-2-(thiophene-2-sulfonyl)-propionamide]
agonistic activity	CC(C)(C)c1cc(NC(=O)C(C)(C)S(=O)(=O)c2ccsc2)no1 [N-(5-tert-Butyl-isoxazol-3-yl)-2-methyl-2-(thiophene-3-sulfonyl)-propionamide]
agonistic activity	Cc1ccc(S(=O)(=O)C(C)(C)C(=O)Nc2cc(C(C)(C)C)on2)cc1 [N-(5-tert-Butyl-isoxazol-3-yl)-2-methyl-2-(toluene-4-sulfonyl)-propionamide]
agonistic activity	CC(C)C(C(=O)Nc1cc(C(C)(C)C)on1)S(=O)(=O)c1ccc(C(F)(F)F)cc1 (stereo not shown) [N-(5-tert-Butyl-isoxazol-3-yl)-3-methyl-2-(4-trifluoromethyl-benzenesulfonyl)-butyramide]
agonistic activity	CC(C)(C)c1nnc(NC(=O)C(C)(C)S(=O)(=O)c2ccc(Cl)cc2F)s1 [N-(5-tert-butyl-1,3,4-thiadiazol-2-yl)-2-[(4-chloro-2-fluorophenyl)sulfonyl]-2-methylpropanamide]
agonistic activity	CC(C)(C(=O)Nc1nc2ccccc2s1)S(=O)(=O)c1ccc(Cl)cc1 [N-Benzothiazol-2-yl-2-(4-chloro-benzenesulfonyl)-2-methyl-propionamide]
agonistic activity	COc1ccc(S(=O)(=O)C(C)(C)C(=O)Nc2cc(CC(C)(C)C)no2)cc1 [N-[3-(2,2-dimethylpropyl)isoxazol-5-yl]-2-[(4-methoxyphenyl)sulfonyl]-2-methylpropanamide]
agonistic activity	CC(C)(C)Cc1cc(NC(=O)C(C)(C)S(=O)(=O)c2ccc(S(C)(=O)=O)cc2)on1 [N-[3-(2,2-dimethylpropyl)isoxazol-5-yl]-2-methyl-2-{[4-(methylsulfonyl)phenyl]sulfonyl}propanamide]
agonistic activity	COc1ccc(S(=O)(=O)C(C)(C)C(=O)Nc2nc(-c3ccc(Cl)cc3)cs2)cc1 [N-[4-(4-Chloro-phenyl)-thiazol-2-yl]-2-(4-methoxy-benzenesulfonyl)-2-methyl-propionamide]
agonistic activity	Cc1ccc(S(=O)(=O)C(C)(C)C(=O)Nc2nc(-c3ccc(Cl)cc3)cs2)cc1 [N-[4-(4-Chloro-phenyl)-thiazol-2-yl]-2-methyl-2-(toluene-4-sulfonyl)-propionamide]
agonistic activity	CC(C)(C(=O)Nc1nc(-c2ccc(Cl)cc2)cs1)S(=O)(=O)c1ccc(S(C)(=O)=O)cc1 [N-[4-(4-chlorophenyl)-1,3-thiazol-2-yl]-2-methyl-2-{[4-(methylsulfonyl)phenyl]sulfonyl}propanamide]

Structure (SMILES)	agonistic activity
CC(C)(C)c1cc(NC(=O)C(C)(C)S(=O)(=O)c2cccc(C(F)(F)F)c2)no1 [N-(5-tert-Butyl-isoxazol-3-yl)-2-methyl-2-(3-trifluoromethyl-benzenesulfonyl)-propionamide]	agonistic activity
CC(C)(C)c1cc(NC(=O)C(C)(C)S(=O)(=O)c2ccc(C(F)(F)F)cc2)no1 [N-(5-tert-Butyl-isoxazol-3-yl)-2-methyl-2-(4-trifluoromethyl-benzenesulfonyl)-propionamide]	agonistic activity
CC(C)(C)c1cc(NC(=O)C(C)(C)S(=O)(=O)c2ccc(C(F)(F)F)cn2)no1 [N-(5-tert-Butyl-isoxazol-3-yl)-2-methyl-2-(5-trifluoromethyl-pyridine-2-sulfonyl)-propionamide]	agonistic activity
CC(C)(C)c1cc(NC(=O)C(C)(C)S(=O)(=O)c2ccc(C(F)(F)F)nc2)no1 [N-(5-tert-Butyl-isoxazol-3-yl)-2-methyl-2-(6-trifluoromethyl-pyridine-3-sulfonyl)-propionamide]	agonistic activity
CC(C)(C)c1cc(NC(=O)C(C)(C)S(=O)(=O)c2ccc3ccccc3c2)no1 [N-(5-tert-Butyl-isoxazol-3-yl)-2-methyl-2-(naphthalene-2-sulfonyl)-propionamide]	agonistic activity
CC(C)C(C(=O)Nc1cc(C(C)(C)C)on1)S(=O)(=O)c1ccc(C(F)(F)F)cn1 (stereo not shown) [N-(5-tert-Butyl-isoxazol-3-yl)-3-methyl-2-(5-trifluoromethyl-pyridine-2-sulfonyl)-butyramide]	agonistic activity
CC(C)(C)c1cnc(NC(=O)C(C)(C)S(=O)(=O)c2ccc(Cl)cc2)s1 [N-(5-tert-Butyl-thiazol-2-yl)-2-(4-chloro-benzenesulfonyl)-2-methyl-propionamide]	agonistic activity
CC(C)(C)c1nnc(NC(=O)C(C)(C)S(=O)(=O)c2ccc(F)cc2F)s1 [N-(5-tert-butyl-1,3,4-thiadiazol-2-yl)-2-[(2,4-difluorophenyl)sulfonyl]-2-methylpropanamide]	agonistic activity
CC(C)(C)c1nnc(NC(=O)C(C)(C)S(=O)(=O)c2ccc(C(F)(F)F)nc2)s1 [N-(5-tert-butyl-1,3,4-thiadiazol-2-yl)-2-methyl-2-{[6-(trifluoromethyl)pyridin-3-yl]sulfonyl}propanamide]	agonistic activity
CC(C)(C(=O)Nc1noc2ccccc12)S(=O)(=O)c1ccc(Cl)cc1 [N-Benzo[d]isoxazol-3-yl-2-(4-chloro-benzenesulfonyl)-2-methyl-propionamide]	agonistic activity
CC(C)(C(=O)Nc1nc2ccccc2o1)S(=O)(=O)c1ccc(Cl)cc1 [N-Benzooxazol-2-yl-2-(4-chloro-benzenesulfonyl)-2-methyl-propionamide]	agonistic activity
CC(C)(C)Cc1cc(NC(=O)C(C)(C)S(=O)(=O)c2ccc(C(F)(F)F)nc2)on1 [N-[3-(2,2-dimethylpropyl)isoxazol-5-yl]-2-methyl-2-{[6-(trifluoromethyl)pyridin-3-yl]sulfonyl}propanamide]	agonistic activity
CC(C)(C(=O)Nc1nc(-c2ccc(Cl)cc2)cs1)S(=O)(=O)c1ccc(F)cc1F [N-[4-(4-Chloro-phenyl)-thiazol-2-yl]-2-(2,4-difluoro-benzenesulfonyl)-2-methyl-propionamide]	agonistic activity
